Laboratory results as given in patent US20250144223A1, “PROTEIN DEGRADATION COMPOUND BASED ON NAMPT TARGET PROTEIN AND APPLICATION THEREOF” (GLUETACS THERAPEUTICS (SHANGHAI) CO., LTD., priority 2021, published 2025).

Test system: Jurkat
Test: CellTiter-Glo Luminescent Cell Viability Assay, half inhibitory concentration (IC50) on tumor cell proliferation
Type: cell-based
Conditions: Homo sapiens, Jurkat cells, 72 h treatment
Description: The tumor cells used herein were cultured in a cell culture medium at 37° C. in an incubator with 5% CO2, where the cell culture medium was supplemented with 10% FBS, as well as penicillin at a final concentration of 100 U/mL and streptomycin at a final concentration of 100 μg/mL. Prior to experimentation, all cells used were identified as correct cells by STR cells, and were negative for mycoplasma through routine testing.
IC50 values of the compounds of the present disclosure (including the compounds in Table 1 and compounds of examples) were measured using the CellTiter-Glo® Luminescent Cell Viability Assay kit from Promega Corporation. Assay details are as follows: Cells were seeded in 100 μL RPMI1640 medium containing serum at a density of 20,000 cells/well. After 24 h, the inoculated cells were treated with the compounds of the present disclosure which were serially diluted. After the cells were treated with the compounds of the present disclosure for 72 h, the CellTiter-Glo® reagent was added to the culture medium for cell viability assessment according to the instructions provided with the kit. DMSO served as the negative control, and FK866 inhibitor was used as the positive control, both treated with the same protocol as the compounds of the present disclosure. The growth inhibition of the compounds of the present disclosure on cells was plotted by Prism Graphpad software, and the IC50 values of the compounds of the present disclosure were calculated therefrom.

For `O=C(/C=C/c1cccnc1)NCCCCC1CCN(C(=O)c2ccc(N3CCN(CCCC#Cc4cccc5c4CN(C4CCC(=O)NC4=O)C5=O)CC3)cc2)CC1` (stereo not drawn) [SIAIS630129, (E)-N-(4-(1-(4-(4-(5-(2-(2,6-dioxopiperidin-3-yl)-1-oxoisoindolin-4-yl)pent-4-yn-1-yl)piperazin-1-yl)benzoyl)piperidin-4-yl)butyl)-3-(pyridin-3-yl)acrylamide], which IC50 is on record?
Its IC50 is 2.93 nM.

Which IC50 does the source give for `O=C(/C=C/c1cccnc1)NCCCCC1CCN(C(=O)c2ccc(N3CCN(CCSc4cccc5c4CN(C4CCC(=O)NC4=O)C5=O)CC3)cc2)CC1` (stereo not drawn) [SIAIS630130, (E)-N-(4-(1-(4-(4-(2-((2-(2,6-dioxopiperidin-3-yl)-1-oxoisoindolin-4-yl)thio)ethyl)piperazin-1-yl)benzoyl)piperidin-4-yl)butyl)-3-(pyridin-3-yl)acrylamide] here?
Its IC50 is 24.2 nM.

Which IC50 does the source give for `O=C(/C=C/c1cccnc1)NCCCCC1CCN(C(=O)c2ccc(N3CCN(CCCSc4cccc5c4CN(C4CCC(=O)NC4=O)C5=O)CC3)cc2)CC1` (stereo not drawn) [SIAIS630131, (E)-N-(4-(1-(4-(4-(3-((2-(2,6-dioxopiperidin-3-yl)-1-oxoisoindolin-4-yl)thio)propyl)piperazin-1-yl)benzoyl)piperidin-4-yl)butyl)-3-(pyridin-3-yl)acrylamide] here?
The IC50 was 4.38 nM.

`O=C(/C=C/c1cccnc1)NCCCCC1CCN(C(=O)c2ccc(N3CCN(CCCCCSc4cccc5c4CN(C4CCC(=O)NC4=O)C5=O)CC3)cc2)CC1` (stereo not drawn) [SIAIS630132, (E)-N-(4-(1-(4-(4-(5-((2-(2,6-dioxopiperidin-3-yl)-1-oxoisoindolin-4-yl)thio)pentyl)piperazin-1-yl)benzoyl)piperidin-4-yl)butyl)-3-(pyridin-3-yl)acrylamide] was tested. Which IC50 did it give?
The IC50 was 6.29 nM.

With `O=C(/C=C/c1cccnc1)NCCCCC1CCN(C(=O)c2ccc(N3CCN(CCCCCCSc4cccc5c4CN(C4CCC(=O)NC4=O)C5=O)CC3)cc2)CC1` (stereo not drawn) [SIAIS630133, (E)-N-(4-(1-(4-(4-(6-((2-(2,6-dioxopiperidin-3-yl)-1-oxoisoindolin-4-yl)thio)hexyl)piperazin-1-yl)benzoyl)piperidin-4-yl)butyl)-3-(pyridin-3-yl)acrylamide] as the molecule, how does the IC50 read?
Its IC50 is 6.37 nM.

With `O=C(/C=C/c1cccnc1)NCCCCC1CCN(C(=O)c2ccc(N3CCN(CCCCCCCSc4cccc5c4CN(C4CCC(=O)NC4=O)C5=O)CC3)cc2)CC1` (stereo not drawn) [SIAIS630134, (E)-N-(4-(1-(4-(4-(7-((2-(2,6-dioxopiperidin-3-yl)-1-oxoisoindolin-4-yl)thio)heptyl)piperazin-1-yl)benzoyl)piperidin-4-yl)butyl)-3-(pyridin-3-yl)acrylamide] as the molecule, how does the IC50 read?
The IC50 was 7.28 nM.

`O=C(/C=C/c1cccnc1)NCCCCC1CCN(C(=O)c2ccc(N3CCN(CCCCCCCCSc4cccc5c4CN(C4CCC(=O)NC4=O)C5=O)CC3)cc2)CC1` (stereo not drawn) [SIAIS630135, (E)-N-(4-(1-(4-(4-(8-((2-(2,6-dioxopiperidin-3-yl)-1-oxoisoindolin-4-yl)thio)octyl)piperazin-1-yl)benzoyl)piperidin-4-yl)butyl)-3-(pyridin-3-yl)acrylamide] was tested. Which IC50 did it give?
Its IC50 is 4.02 nM.

For `O=C(/C=C/c1cccnc1)NCCCCC1CCN(C(=O)c2ccc(N3CCN(CCCCCCCCCCCSc4cccc5c4CN(C4CCC(=O)NC4=O)C5=O)CC3)cc2)CC1` (stereo not drawn) [SIAIS630136, (E)-N-(4-(1-(4-(4-(11-((2-(2,6-dioxopiperidin-3-yl)-1-oxoisoindolin-4-yl)thio)undecyl)piperazin-1-yl)benzoyl)piperidin-4-yl)butyl)-3-(pyridin-3-yl)acrylamide], which IC50 is on record?
Its IC50 is 64.5 nM.

For `Cc1ncsc1-c1ccc(CNC(=O)[C@@H]2C[C@@H](O)CN2C(=O)[C@@H](NC(=O)CCOCCOCCC(=O)N2CCN(c3ccc(C(=O)N4CCC(CCCCNC(=O)/C=C/c5cccnc5)CC4)cc3)CC2)C(C)(C)C)cc1` [SIAIS631011, (2S,4R)-1-((S)-3,3-dimethyl-2-(3-(2-(3-oxo-3-(4-(4-(4-(4-((E)-3-(pyridin-3-yl)acrylamido)butyl)piperidine-1-carbonyl)phenyl)piperazin-1-yl)propoxy)ethoxy)propanamido)butanoyl)-4-hydroxy-N-(4-(4-methylthiazol-5-yl)benzyl)pyrrolidine-2-carboxamide], which IC50 is on record?
Its IC50 is 140 nM.

Which IC50 does the source give for `O=C(/C=C/c1cccnc1)NCCCCN1CCN(C(=O)c2ccc(N3CCN(CCCCCC#Cc4cccc5c4CN(C4CCC(=O)NC4=O)C5=O)CC3)cc2)CC1` (stereo not drawn) [SIAIS631045, (E)-N-(4-(4-(4-(4-(7-(2-(2,6-dioxopiperidin-3-yl)-1-oxoisoindolin-4-yl)hept-6-yn-1-yl)piperazin-1-yl)benzoyl)piperazin-1-yl)butyl)-3-(pyridin-3-yl)acrylamide] here?
Its IC50 is 80 nM.

For `O=C(/C=C/c1cccnc1)NCCCCC1CCN(C(=O)c2ccc(N3CCN(CCSc4cccc5c4C(=O)N(C4CCC(=O)NC4=O)C5=O)CC3)cc2)CC1` (stereo not drawn) [SIAIS631068, (E)-N-(4-(1-(4-(4-(2-((2-(2,6-dioxopiperidin-3-yl)-1,3-dioxoisoindolin-4-yl)thio)ethyl)piperazin-1-yl)benzoyl)piperidin-4-yl)butyl)-3-(pyridin-3-yl)acrylamide], which IC50 is on record?
The IC50 was 74.4 nM.

`O=C(/C=C/c1cccnc1)NCCCCC1CCN(C(=O)c2ccc(N3CCN(CCCSc4cccc5c4C(=O)N(C4CCC(=O)NC4=O)C5=O)CC3)cc2)CC1` (stereo not drawn) [SIAIS631069, (E)-N-(4-(1-(4-(4-(3-((2-(2,6-dioxopiperidin-3-yl)-1,3-dioxoisoindolin-4-yl)thio)propyl)piperazin-1-yl)benzoyl)piperidin-4-yl)butyl)-3-(pyridin-3-yl)acrylamide] was tested. Which IC50 did it give?
Its IC50 is 71.2 nM.

For `O=C(/C=C/c1cccnc1)NCCCCC1CCN(C(=O)c2ccc(N3CCN(CCCCSc4cccc5c4C(=O)N(C4CCC(=O)NC4=O)C5=O)CC3)cc2)CC1` (stereo not drawn) [SIAIS631070, (E)-N-(4-(1-(4-(4-(4-((2-(2,6-dioxopiperidin-3-yl)-1,3-dioxoisoindolin-4-yl)thio)butyl)piperazin-1-yl)benzoyl)piperidin-4-yl)butyl)-3-(pyridin-3-yl)acrylamide], which IC50 is on record?
The IC50 was 62.9 nM.

With `O=C(/C=C/c1cccnc1)NCCCCC1CCN(C(=O)c2ccc(N3CCN(CCCCCSc4cccc5c4C(=O)N(C4CCC(=O)NC4=O)C5=O)CC3)cc2)CC1` (stereo not drawn) [SIAIS631071, (E)-N-(4-(1-(4-(4-(5-((2-(2,6-dioxopiperidin-3-yl)-1,3-dioxoisoindolin-4-yl)thio)pentyl)piperazin-1-yl)benzoyl)piperidin-4-yl)butyl)-3-(pyridin-3-yl)acrylamide] as the molecule, how does the IC50 read?
The IC50 was 635 nM.

With `O=C(/C=C/c1cccnc1)NCCCCC1CCN(C(=O)c2ccc(N3CCN(CCCCCCSc4cccc5c4C(=O)N(C4CCC(=O)NC4=O)C5=O)CC3)cc2)CC1` (stereo not drawn) [SIAIS631072, (E)-N-(4-(1-(4-(4-(6-((2-(2,6-dioxopiperidin-3-yl)-1,3-dioxoisoindolin-4-yl)thio)hexyl)piperazin-1-yl)benzoyl)piperidin-4-yl)butyl)-3-(pyridin-3-yl)acrylamide] as the molecule, how does the IC50 read?
The IC50 was 63 nM.

`O=C(/C=C/c1cccnc1)NCCCCC1CCN(C(=O)c2ccc(N3CCN(CCCCCCCCSc4cccc5c4C(=O)N(C4CCC(=O)NC4=O)C5=O)CC3)cc2)CC1` (stereo not drawn) [SIAIS631073, (E)-N-(4-(1-(4-(4-(8-((2-(2,6-dioxopiperidin-3-yl)-1,3-dioxoisoindolin-4-yl)thio)octyl)piperazin-1-yl)benzoyl)piperidin-4-yl)butyl)-3-(pyridin-3-yl)acrylamide] was tested. Which IC50 did it give?
Its IC50 is 62.5 nM.

Which IC50 does the source give for `O=C(/C=C/c1cccnc1)NCCCCC1CCN(C(=O)c2ccc(N3CCN(CCCCCCCSc4cccc5c4C(=O)N(C4CCC(=O)NC4=O)C5=O)CC3)cc2)CC1` (stereo not drawn) [SIAIS631078, (E)-N-(4-(1-(4-(4-(7-((2-(2,6-dioxopiperidin-3-yl)-1,3-dioxoisoindolin-4-yl)thio)heptyl)piperazin-1-yl)benzoyl)piperidin-4-yl)butyl)-3-(pyridin-3-yl)acrylamide] here?
The IC50 was 62.2 nM.

`O=C(/C=C/c1cccnc1)NCCCCC1CCN(C(=O)c2ccc(N3CCN(C(=O)CCOCCNc4cccc5c4C(=O)N(C4CCC(=O)NC4=O)C5=O)CC3)cc2)CC1` (stereo not drawn) [SIAIS631079, (E)-N-(4-(1-(4-(4-(3-(2-((2-(2,6-dioxopiperidin-3-yl)-1,3-dioxoisoindolin-4-yl)amino)ethoxy)propanoyl)piperazin-1-yl)benzoyl)piperidin-4-yl)butyl)-3-(pyridin-3-yl)acrylamide] was tested. Which IC50 did it give?
The IC50 was 7.32 nM.

`O=C(/C=C/c1cccnc1)NCCCCC1CCN(C(=O)c2ccc(N3CCN(CCCCCC#Cc4cccc5c4C(=O)N(C4CCC(=O)NC4=O)C5=O)CC3)cc2)CC1` (stereo not drawn) [SIAIS631108, (E)-N-(4-(1-(4-(4-(7-(2-(2,6-dioxopiperidin-3-yl)-1,3-dioxoisoindolin-4-yl)hept-6-yn-1-yl)piperazin-1-yl)benzoyl)piperidin-4-yl)butyl)-3-(pyridin-3-yl)acrylamide] was tested. Which IC50 did it give?
Its IC50 is 79.7 nM.

`O=C(/C=C/c1cccnc1)NCCCCC1CCN(C(=O)c2ccc(N3CCN(C(=O)CCOCCOCCNc4cccc5c4C(=O)N(C4CCC(=O)NC4=O)C5=O)CC3)cc2)CC1` (stereo not drawn) [SIAIS631109, (E)-N-(4-(1-(4-(4-(3-(2-(2-((2-(2,6-dioxopiperidin-3-yl)-1,3-dioxoisoindolin-4-yl)amino)ethoxy)ethoxy)propanoyl)piperazin-1-yl)benzoyl)piperidin-4-yl)butyl)-3-(pyridin-3-yl)acrylamide] was tested. Which IC50 did it give?
The IC50 was 71.2 nM.

With `O=C(/C=C/c1cccnc1)NCCCCC1CCN(C(=O)c2ccc(N3CCN(C(=O)COCCSc4cccc5c4C(=O)N(C4CCC(=O)NC4=O)C5=O)CC3)cc2)CC1` (stereo not drawn) [SIAIS631111, (E)-N-(4-(1-(4-(4-(2-(2-((2-(2,6-dioxopiperidin-3-yl)-1,3-dioxoisoindolin-4-yl)thio)ethoxy)acetyl)piperazin-1-yl)benzoyl)piperidin-4-yl)butyl)-3-(pyridin-3-yl)acrylamide] as the molecule, how does the IC50 read?
Its IC50 is 64.3 nM.
